# Data published in article PMC7438494 (Communications Biology, 2020).
# Values joined by “and” are separate entries in the source; they are usually repeats but may differ in a detail not shown here. Equal entries are not always repeated. Where two headings read alike, the source gives them in different places.
# Legend:
# yeast F1Fo ATP synthase = yeast F1Fo ATP synthase (Saccharomyces cerevisiae, UniProt P00854+P61829); assay: biochemical; conditions: for ATP hydrolysis activity, Exp 1-3: upper block, head prints SMP, listed as Og-A
# [1] = target: yeast mitochondrial ATP synthase (yeast SMP) (Saccharomyces cerevisiae, UniProt P00854+P61829); assay: biochemical; conditions: for ATP hydrolysis activity, Exp 1-3: SMP, lower block, listed as Og-A
# [2] = target: yeast mitochondrial ATP synthase (Saccharomyces cerevisiae, UniProt P00854+P61829); assay: biochemical; conditions: for Cyanide sensitive: 60 min
# human ATP synthase = human ATP synthase (Homo sapiens, UniProt P00846+P05496); assay: biochemical; type: biochemical
# [3] = target: yeast mitochondrial ATP synthase (Saccharomyces cerevisiae, UniProt P61829); assay: Uncoupling of the yeast mitochondrial ATP synthase; type: biochemical; conditions: high concentrations
# [4] = Oligomycin-A 0.05 μM, cyanide sensitive, yeast frozen mito
# [5] = Oligomycin-A 0.6 μM, cyanide sensitive, yeast frozen mito
# [6] = 1 ug/ml Oligomycin, […], frozen human mito
# [7] = read-out: % activity, cyanide sensitive ATP synthesis
compound,measurement,setting,value
CC[C@@H]1/C=C/C=C/C[C@H](C)[C@@H](O)[C@](C)(O)C(=O)[C@H](C)[C@@H](O)[C@H](C)C(=O)[C@H](C)[C@@H](O)[C@H](C)/C=C/C(=O)O[C@H]2[C@@H](C)[C@@H](CC1)O[C@@]1(CC[C@@H](C)[C@@H](C[C@H](C)O)O1)[C@@H]2C [Oligomycin A],inhibition of ATP hydrolysis by yeast F1Fo (extent),"yeast F1Fo ATP synthase; F1Fo in bicelles, maximal",85%
same,IC50,"yeast F1Fo ATP synthase; F1Fo in bicelles, n = 3, read-out: IC50 ± SEM, ATP hydrolysis, purified yeast F1Fo",0.107 ± 0.0011 µM
same,IC50,"yeast F1Fo ATP synthase; F1Fo in bicelles, read-out: IC50, ATP hydrolysis, purified yeast F1Fo",~0.1 µM
same,EC50,"yeast F1Fo ATP synthase; reconstituted in bicelles, n = 3, read-out: EC50, inhibition of the ATPase activity of purified yeast ATP synthase",0.107 ± 0.0011 µM
same,"ATP hydrolysis activity, Exp 1-3",yeast F1Fo ATP synthase; Og-A 0.0101128 uM,0.9127 and 0.9068 and 0.9174
same,"ATP hydrolysis activity, Exp 1-3",yeast F1Fo ATP synthase; Og-A 0.0505638 uM,0.7469 and 0.6678 and 0.6555
same,"ATP hydrolysis activity, Exp 1-3",yeast F1Fo ATP synthase; Og-A 0.252819 uM,0.4366 and 0.4305 and 0.5
same,"ATP hydrolysis activity, Exp 1-3",yeast F1Fo ATP synthase; Og-A 1.26409 uM,0.3568 and 0.3661 and 0.3907
same,"ATP hydrolysis activity, Exp 1-3",yeast F1Fo ATP synthase; Og-A 6.32047 uM,0.2269 and 0.2038 and 0.2221
same,"ATP hydrolysis activity, Exp 1-3",yeast F1Fo ATP synthase; Og-A 15.8012 uM,0.2056 and 0.2009 and 0.2105
same,"ATP hydrolysis activity, Exp 1-3",yeast F1Fo ATP synthase; Og-A 31.6024 uM,0.2364 and 0.1839 and 0.1796
same,"ATP hydrolysis activity, Exp 1-3",[1]; Og-A 0.0101 uM,0.8851 and 0.8864 and 0.89
same,"ATP hydrolysis activity, Exp 1-3",[1]; Og-A 0.0506 uM,0.8632 and 0.8483 and 0.878
same,"ATP hydrolysis activity, Exp 1-3",[1]; Og-A 0.2528 uM,0.7765 and 0.7817 and 0.7989
same,"ATP hydrolysis activity, Exp 1-3",[1]; Og-A 0.632 uM,0.6228 and 0.6613 and 0.6108
same,"ATP hydrolysis activity, Exp 1-3",[1]; Og-A 1.2641 uM,0.4529 and 0.4416 and 0.4356
same,"ATP hydrolysis activity, Exp 1-3",[1]; Og-A 6.3205 uM,0.1135 and 0.1053 and 0.1112
same,"ATP hydrolysis activity, Exp 1-3",[1]; Og-A 15.8012 uM,0.0859 and 0.0937 and 0.0705
same,"ATP hydrolysis activity, Exp 1-3",[1]; Og-A 31.6024 uM,0.097 and 0.0697 and 0.0822
same,IC50,"[1]; n = 3, read-out: IC50 ± SEM, ATP hydrolysis, yeast SMP",~1.1 µM and 1.1 µM
same,remaining activity at 0.0005 µM,"[2]; Oligomycin-A 0.0005 μM, cyanide sensitive, yeast frozen mito",110%
same,remaining activity at 0.005 µM,"[2]; Oligomycin-A 0.005 μM, cyanide sensitive, yeast frozen mito",101%
same,Cyanide sensitive,"[2]; Oligomycin-A 0.01 μM, yeast frozen mito",21.2843 nmol/min/mg and 38.526 nmol/min/mg and 37.46 nmol/min/mg
same,inhibition at 0.05 µM,[2]; [4],16.9%
same,remaining activity at 0.05 µM,[2]; [4],83.1%
same,Cyanide sensitive,"[2]; Oligomycin-A 0.05 μM, yeast frozen mito",16.4622 nmol/min/mg and 31.3703 nmol/min/mg
same,Cyanide sensitive,"[2]; Oligomycin-A 0.08 μM, yeast frozen mito",15.1607 nmol/min/mg and 21.1456 nmol/min/mg and 29.9684 nmol/min/mg
same,Cyanide sensitive,"[2]; Oligomycin-A 0.2 μM, yeast frozen mito",6.587 nmol/min/mg and 5.248 nmol/min/mg and 9.417 nmol/min/mg
same,inhibition at 0.6 µM,[2]; [5],95.6%
same,remaining activity at 0.6 µM,[2]; [5],4.43%
same,Cyanide sensitive,"[2]; Oligomycin-A 0.6 μM, yeast frozen mito",0.8771 nmol/min/mg and 1.272 nmol/min/mg and 1.435 nmol/min/mg
same,inhibition at 1 µM,"[2]; Oligomycin-A 1 μM, cyanide sensitive, yeast frozen mito, read-out: % inhibition",100%
same,inhibition at 2 µM,"[2]; Oligomycin-A 2 μM, cyanide sensitive, yeast frozen mito",100%
same,IC50,"[2]; n = 3, read-out: IC50 ± SEM, ATP synthesis, yeast mitochondria",0.1 ± 0.008 µM
same,inhibition at 1 µM,"[2]; read-out: inhibition of cyanide sensitive ATP synthesis, yeast mitochondria",98%
same,extent of inhibition of ATP synthesis of the human enzyme,human ATP synthase,nearly completely
same,% activity,human ATP synthase; [6],19.1774%
same,% inhibition,human ATP synthase; [6],80.8226%
same,"ATP produced, nmol/min/mg",human ATP synthase; [6],1.61 nmol/min/mg
same,"ATP produced, pmol/min/mg",human ATP synthase; [6],1614.78 pmol/min/mg
same,activity at 1 µg/mL,human ATP synthase; [6],19.2%
same,inhibition at 1 µg/mL,human ATP synthase; [6],80.8%
same,IC50,"human ATP synthase; IC50 ± SEM, ATP synthesis, human mitoplasts",0.0054 ± 0.0006 µM
same,remaining activity at 0.001 µM,human ATP synthase; [7],70.9%
same,remaining activity at 0.007 µM,human ATP synthase; [7],34.6%
same,remaining activity at 0.01 µM,human ATP synthase; [7],18.4%
same,inhibition at 1.25 µM,"human ATP synthase; read-out: inhibition of cyanide sensitive ATP synthesis, human mitoplasts",98%
venturicidin,uncoupling of the yeast mitochondrial ATP synthase,[3],uncouples
